According to patent US20240263147A1, “CARDIAC ORGANOID AND ANTI-ELECTRO-MITOCHONDRIAL DESYNCHRONIZATION THERAPY” (YISSUM RESEARCH DEVELOPMENT COMPANY OF THE HEBREW …, priority 2021, published 2024):
“Also recorded” adds a separate entry of the source.

tested on: vascularized cardiac organoids; experiment: Integrated metabolic-electro-mechanical sensor chip: simultaneous contraction, field potential and interstitial oxygen; type: cell-based, human; conditions: 10 μM Blebbistatin

Row | Compound | effect on contraction | effect on field potential and interstitial oxygen oscillation frequency and intensity
1 | Cc1ccc2c(c1)C(=O)C1(O)CCN(c3ccccc3)C1=N2 (stereo not drawn) [Blebbistatin] | inhibits the contraction; also recorded: blocked cardiac contraction | does not affect the FPs or interstitial oxygen oscillations frequency and intensity; also recorded: did not affect the field potential or the oxygen oscillation frequency and intensity

tested on: vascularized cardiac organoids; experiment: as above; type: cell-based, human; conditions: not given
Experimental: The MEA design and printed connections enabled access to 45 different electrodes inside the platform intermittently via a compatible sensor circuit (FIGS. 9A-9B). Spontaneous cardiac field potentials (FPs) were recorded from cardiac organoids using an integrated signal conditioning circuit (AD8232®), with a 2-pole adjustable high-pass filter, 3-pole adjustable low-pass filter, adjustable gain, and medical instrumentation amplifiers to extract, amplify, and filter the extracellular field potential of the organoids remotely within the confined well. […] Spontaneous cardiac field potentials were measured at 100 Hz sampling rate in each microwell. Field potential rhythm frequency was calculated in real-time using a custom-made MATLAB® software imposing Fourier Transformation (FFT) on the evolving kinetic data (FIGS. 9C-9D).
Real-time oxygen measurement was performed based on previously described elements. Briefly, phosphorescent ruthenium microprobes (CPOx-50-RuP) show a decrease in phosphorescence decay time as a function of oxygen concentration, allowing to measure the oxygen content. Controlled sinusoidal modulated 532-nm LED signal excites the embedded oxygen sensors and emits a sinusoidal amplitude-modulated light at 605 nm that is shifted in phase due to oxygen quenching. A phase shift is measured between the emission hardware-filtered first detector (PMT), and a second excitation detector (cPMT). […] Measurements were carried out at a 10 Hz sampling rate. Contraction rate and oxygen rhythm frequency were calculated in real-time using a custom-made MATLAB® software imposing Fourier Transformation (FFT) on the evolving kinetic data. Using custom MATLAB code, we calculated the cardiac organoid contraction rates directly from our oxygen reader based on the emission intensity measured in peak-to-peak voltage from the oxygen bead and its displacement using the second PMT system. Cardiac displacement was measured by the embedded oxygen beads inside the cardiac organoids during a contraction. When the beads move at different distances from the focal point, changes in peak-to-peak voltage occurred leading to the detection of the contraction behavior.
For simultaneous real-time oxygen, contraction rate, and field potential measurements, cardiac organoids were cultured in RPMI supplemented with B27 minus insulin, 5 ng/ml VEGF and 0.1% DMSO (control) or 10 μM KB-R7943 mesylate. Real-time oxygen, contraction rate, and field potential were measured after 0, 15, and 25 minutes of exposure to DMSO (control) or 10 μM KB-R7943 mesylate.

Row | Compound | effect on field potential generation, mechanical contraction (and oxygen oscillation) | effect on oxygen oscillation
2 | NC1=N[C@H](O)[C@H]2[C@H]3O[C@]4(O)O[C@@H]([C@@H](O)[C@@]2(N1)[C@@H]4O)[C@]3(O)CO [Tetrodotoxin] | complete loss of field potential generation and associated mechanical contraction; also recorded: eliminated field potential generation, mechanical contraction, and oxygen oscillation | decayed simultaneously with the field potential

tested on: not given; experiment: not given; conditions: known cardiac side effects of therapeutic agents; cited from earlier work

Row | Compound | Side effect (cardiac)
3 | CS(=O)(=O)c1ccc(C2=C(c3ccccc3)C(=O)OC2)cc1 [Rofecoxib] | myocardial infarction
4 | O=C1NCCN1CCN1CCC(c2cn(-c3ccc(F)cc3)c3ccc(Cl)cc23)CC1 [Sertindole] | QT prolongation, TdP, sudden cardiac death
5 | COc1cc2c(Nc3ccc(Br)cc3F)ncnc2cc1OCC1CCN(C)CC1 [Vandetanib] | long QT
6 | CC(C)OC(=O)[C@H](C)N[P@](=O)(OC[C@H]1O[C@@H](n2ccc(=O)[nH]c2=O)[C@](C)(F)[C@@H]1O)Oc1ccccc1 [Sofobuvir] | Bradycardia
7 | CS(=O)(=O)CCNCc1ccc(-c2ccc3ncnc(Nc4ccc(OCc5cccc(F)c5)c(Cl)c4)c3c2)o1 [Lapatinib] | left ventricular ejection fraction, congestive heart failure
8 | CN1C[C@H](C(=O)N[C@]2(C)O[C@@]3(O)[C@@H]4CCCN4C(=O)[C@H](Cc4ccccc4)N3C2=O)C=C2c3cccc4[nH]cc(c34)C[C@H]21 [Ergotamine] | valvular heart disease
9 | COc1cccc2c1C(=O)c1c(O)c3c(c(O)c1C2=O)C[C@@](O)(C(=O)CO)C[C@@H]3O[C@H]1C[C@H](N)[C@H](O)[C@H](C)O1 [Doxorubicin] | arrhythmias, heart failure
10 | N=C(N)c1ccc(OCCCCCOc2ccc(C(=N)N)cc2)cc1 [Pentamidine] | QT prolongation, arrhythmias
11 | CCN[C@@H](C)Cc1cccc(C(F)(F)F)c1 [Dexfenfluramine] | valvular heart disease
12 | CC(C)(N)Cc1ccc(Cl)cc1 [Chlorphentermine] | pulmonary heart disease
13 | CCCCCNC(=N)N/N=C/c1c[nH]c2ccc(OC)cc12 [Tegaserod] | Ischemia
14 | COc1cc(N)c(Cl)cc1C(=O)NC1CCN(CCCOc2ccc(F)cc2)CC1OC (stereo not drawn) [Cispapride] | ventricular arrhythmia, QT prolongation, TdP, cardiac arrest
15 | CCNC(C)Cc1cccc(C(F)(F)F)c1 (stereo not drawn) [Fenfluramine] | valvular heart disease
16 | Cc1ccc(-c2ncc(Cl)cc2-c2ccc(S(C)(=O)=O)cc2)cn1 [Etoricoxib] | thrombotic events
17 | CC(C)C[C@H](NC(=O)[C@H](Cc1ccccc1)NC(=O)c1cnccn1)B(O)O [Bortezomib] | heart failure, arrhythmia
18 | CC[C@@H](CO)NC(=O)[C@@H]1C=C2c3cccc4c3c(cn4C)C[C@H]2N(C)C1 [Methysergide] | valvular heart disease
19 | CN(CCOc1ccc(CC2SC(=O)NC2=O)cc1)c1ccccn1 (stereo not drawn) [Rosiglitazone] | heart failure
20 | COc1ccc2[nH]c([S+]([O-])Cc3ncc(C)c(OC)c3C)nc2c1 (stereo not drawn) [Omeprazole] | acute myocardial infarction, heart failure
21 | CC(CN(C)C)C(C)(O)Cc1ccc(Cl)cc1 (stereo not drawn) [Clobutinol] | QT prolongation
22 | Nivolumab | lethal myocarditis
23 | COC(=O)[C@H]1[C@@H](OC(=O)c2ccccc2)C[C@@H]2CC[C@H]1N2C [Cocaine] | left ventricular hypertrophy, arrhythmias
24 | COc1ccc2cc([C@H](C)C(=O)O)ccc2c1 [Naproxen] | myocardial infarction
25 | Cc1cn([C@H]2C[C@H](N=[N+]=[N-])[C@@H](CO)O2)c(=O)[nH]c1=O [Azidothymidine] | dilated cardiomyopathy
26 | Cc1nc(Nc2ncc(C(=O)Nc3c(C)cccc3Cl)s2)cc(N2CCN(CCO)CC2)n1 [Dasatinib] | heart failure

Row | Compound | Side effect (cardiac)
27 | COc1cccc2c1C(=O)c1c(O)c3c(c(O)c1C2=O)C[C@@](O)(C(C)=O)C[C@@H]3O[C@H]1C[C@H](N)[C@H](O)[C@H](C)O1 [Daunorubicin] | arrhythmias, heart failure
28 | COc1ccc(CCN2CCC(Nc3nc4ccccc4n3Cc3ccc(F)cc3)CC2)cc1 [Astemizole] | long QT syndrome, TdP
29 | COc1ccc(C(CN(C)C)C2(O)CCCCC2)cc1 (stereo not drawn) [Venlafaxine] | QT prolongation, arrhythmias
30 | COc1cc(OC)c(C(=O)CCCN2CCCC2)c(OC)c1 [Buflomedil] | QT prolongation, cardiac arrest
31 | CNC(=O)c1cc(Oc2ccc(NC(=O)Nc3ccc(Cl)c(C(F)(F)F)c3)cc2)ccn1 [Sorafenib] | heart failure, myocardial ischemia, QT prolongation
32 | N.N.[Cl][Pt][Cl] [Cisplatin] | arrhythmias, myocardial ischemia, heart failure
33 | CC[C@H]1OC(=O)[C@H](C)[C@@H](O[C@H]2C[C@@](C)(OC)[C@@H](O)[C@H](C)O2)[C@H](C)[C@@H](O[C@@H]2O[C@H](C)C[C@H](N(C)C)[C@H]2O)[C@](C)(OC)C[C@@H](C)C(=O)[C@H](C)[C@@H](O)[C@]1(C)O [Clarithromycin] | QT prolongation, myocardial infarction, arrhythmias, cardiac death
34 | Arsenic trioxide | QT prolongation, tachycardia
35 | CCN(CC)CC(=O)Nc1c(C)cccc1C [Lidocaine] | bradycardia, cardiac arrest
36 | CCN(CC)CCNC(=O)c1c(C)[nH]c(/C=C2\C(=O)Nc3ccc(F)cc32)c1C [Sunitinib] | long QT, left ejection fraction, myocardial infarction
37 | COCC(=O)O[C@]1(CCN(C)CCCc2nc3ccccc3[nH]2)CCc2cc(F)ccc2[C@@H]1C(C)C [Mibefradil] | QT prolongation
38 | COc1ccc(C(=O)Nc2ccccc2CCC2CCCCN2C)cc1 (stereo not drawn) [Encainide] | QT prolongation, TdP
39 | CC(=O)O[C@@]12CO[C@@H]1C[C@H](O)[C@@]1(C)C(=O)[C@H](O)C3=C(C)[C@@H](OC(=O)[C@H](O)[C@@H](NC(=O)OC(C)(C)C)c4ccccc4)C[C@@](O)([C@@H](OC(=O)c4ccccc4)[C@H]21)C3(C)C [Docetaxel] | bradycardia, myocardial ischemia, heart failure
40 | CCCCN1CCCCC1C(=O)Nc1c(C)cccc1C (stereo not drawn) [Bupivacaine] | ventricular arrhythmias, myocardial depression
41 | Ipilimumab | lethal myocarditis
42 | CC(CC(c1ccccc1)c1ccccc1)NC(C)(C)C (stereo not drawn) [Terodiline] | ventricular tachycardia, cardiac death
43 | C[C@@H]1CN(c2c(F)c(N)c3c(=O)c(C(=O)O)cn(C4CC4)c3c2F)C[C@H](C)N1 [Sparfloxacin] | QT prolongation
44 | CC(C)(N)Cc1ccccc1 [Phentermine] | valvular heart disease
45 | O=C1Cc2cc(CCN3CCN(c4nsc5ccccc45)CC3)c(Cl)cc2N1 [Ziprasidone] | QT prolongation, TdP, sudden cardiac death
46 | Cn1c(=O)cc(N2CCC[C@@H](N)C2)n(Cc2ccccc2C#N)c1=O [Alogliptin] | heart failure
47 | CC(=O)[C@]1(O)Cc2c(O)c3c(c(O)c2[C@@H](O[C@H]2C[C@H](N)[C@H](O)[C@H](C)O2)C1)C(=O)c1ccccc1C3=O [Idarubicin] | arrhythmias, heart failure
48 | CCCN1C[C@H](CSC)C[C@@H]2c3cccc4[nH]cc(c34)C[C@H]21 [Pergolide] | valvular heart disease
49 | O=c1[nH]cc(F)c(=O)[nH]1 [5-fluorouracil] | arrhythmias, myocardial ischemia, heart failure
